Experimental data as given in PubChem BioAssay (NCI).
Values joined by “and” are separate entries in the source; they are usually repeats but may differ in a detail not shown here. Equal values may be shown once.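 Five compound concentrations were applied to cells in 96-well plates for 48 hours; endpoints were derived by simple linear interpolation of the resulting dose-response curve. Here, GI50 denotes the concentration required for 50% inhibition of growth. TGI: concentration producing complete growth inhibition.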

What was measured:
Experiment in all cases: NCI tumour cell line growth inhibition, 48 h
786-0 renal = test system: 786-0 renal
A498 renal = test system: A498 renal
A549 NSCLC = test system: A549 NSCLC
ACHN renal = test system: ACHN renal
BT-549 breast = test system: BT-549 breast
CAKI-1 renal = test system: CAKI-1 renal
CCRF-CEM leukemia = test system: CCRF-CEM leukemia
COLO 205 colon = test system: COLO 205 colon
DU-145 prostate = test system: DU-145 prostate
EKVX NSCLC = test system: EKVX NSCLC
HCC-2998 colon = test system: HCC-2998 colon
HCT-116 colon = test system: HCT-116 colon
HCT-15 colon = test system: HCT-15 colon
HL-60(TB) leukemia = test system: HL-60(TB) leukemia
HOP-62 NSCLC = test system: HOP-62 NSCLC
HOP-92 NSCLC = test system: HOP-92 NSCLC
HS 578T breast = test system: HS 578T breast
HT29 colon = test system: HT29 colon
IGROV1 ovarian = test system: IGROV1 ovarian
K-562 leukemia = test system: K-562 leukemia
KM12 colon = test system: KM12 colon
LOX IMVI melanoma = test system: LOX IMVI melanoma
M14 melanoma = test system: M14 melanoma
MALME-3M melanoma = test system: MALME-3M melanoma
MCF7 breast = test system: MCF7 breast
MDA-MB-231 breast = test system: MDA-MB-231 breast
MDA-MB-435 = test system: MDA-MB-435
MOLT-4 leukemia = test system: MOLT-4 leukemia
NCI-H226 lung = test system: NCI-H226 lung
NCI-H23 lung = test system: NCI-H23 lung
NCI-H460 lung = test system: NCI-H460 lung
NCI-H522 lung = test system: NCI-H522 lung
NCI/ADR-RES ovarian = test system: NCI/ADR-RES ovarian
OVCAR-3 ovarian = test system: OVCAR-3 ovarian
OVCAR-4 ovarian = test system: OVCAR-4 ovarian
OVCAR-5 ovarian = test system: OVCAR-5 ovarian
OVCAR-8 ovarian = test system: OVCAR-8 ovarian
PC-3 prostate = test system: PC-3 prostate
RPMI-8226 leukemia = test system: RPMI-8226 leukemia
RXF 393 renal = test system: RXF 393 renal
SF-268 CNS = test system: SF-268 CNS
SF-295 CNS = test system: SF-295 CNS
SF-539 CNS = test system: SF-539 CNS
SK-MEL-2 melanoma = test system: SK-MEL-2 melanoma
SK-MEL-28 melanoma = test system: SK-MEL-28 melanoma
SK-MEL-5 melanoma = test system: SK-MEL-5 melanoma
SK-OV-3 ovarian = test system: SK-OV-3 ovarian
SN12C renal = test system: SN12C renal
SNB-19 CNS = test system: SNB-19 CNS
SNB-75 CNS = test system: SNB-75 CNS
SR leukemia = test system: SR leukemia
SW-620 colon = test system: SW-620 colon
T-47D breast = test system: T-47D breast
TK-10 renal = test system: TK-10 renal
U251 CNS = test system: U251 CNS
UACC-257 melanoma = test system: UACC-257 melanoma
UACC-62 melanoma = test system: UACC-62 melanoma
UO-31 renal = test system: UO-31 renal

O=C(Nc1ccc([N+](=O)[O-])cc1Cl)c1cc(Cl)ccc1O
GI50 (786-0 renal): 142 nM and 268 nM | TGI (786-0 renal): 488 nM and 825 nM | GI50 (A498 renal): 32.9 nM and 83.2 nM | TGI (A498 renal): 171 nM and 353 nM | GI50 (A549 NSCLC): 163 nM and 327 nM | TGI (A549 NSCLC): 23400 nM and > 100000 nM | GI50 (ACHN renal): 155 nM and 258 nM | TGI (ACHN renal): 19400 nM | GI50 (BT-549 breast): 105 nM and 156 nM | TGI (BT-549 breast): 344 nM and 647 nM | GI50 (CAKI-1 renal): 108 nM and 227 nM | TGI (CAKI-1 renal): 4210 nM | GI50 (CCRF-CEM leukemia): 133 nM and 305 nM | GI50 (COLO 205 colon): 1340 nM and 1520 nM | TGI (COLO 205 colon): 3260 nM and 3220 nM | GI50 (DU-145 prostate): 199 nM and 352 nM | TGI (DU-145 prostate): 6220 nM and 35500 nM | GI50 (EKVX NSCLC): 160 nM and 315 nM | GI50 (HCC-2998 colon): 215 nM and 452 nM | TGI (HCC-2998 colon): 2580 nM and 3430 nM | GI50 (HCT-116 colon): 121 nM and 172 nM | TGI (HCT-116 colon): 397 nM and 483 nM | GI50 (HCT-15 colon): 154 nM and 260 nM | TGI (HCT-15 colon): 3200 nM | GI50 (HL-60(TB) leukemia): 115 nM | TGI (HL-60(TB) leukemia): 244 nM | GI50 (HOP-62 NSCLC): 149 nM and 262 nM | TGI (HOP-62 NSCLC): 469 nM | GI50 (HOP-92 NSCLC): 19.4 nM and 59.1 nM | TGI (HOP-92 NSCLC): 100 nM and 261 nM | GI50 (HS 578T breast): 133 nM and 207 nM | GI50 (HT29 colon): 1260 nM and 2160 nM | TGI (HT29 colon): 3680 nM and > 28800 nM | GI50 (IGROV1 ovarian): 229 nM and 294 nM | TGI (IGROV1 ovarian): 18700 nM and 8490 nM | GI50 (K-562 leukemia): 120 nM and 210 nM | GI50 (KM12 colon): 169 nM and 303 nM | TGI (KM12 colon): 608 nM and 1200 nM | GI50 (LOX IMVI melanoma): 162 nM and 244 nM | GI50 (M14 melanoma): 160 nM and 318 nM | TGI (M14 melanoma): 645 nM and 1750 nM | GI50 (MALME-3M melanoma): 101 nM and 194 nM | TGI (MALME-3M melanoma): 338 nM and 744 nM | GI50 (MCF7 breast): 151 nM and 286 nM | GI50 (MDA-MB-231 breast): 110 nM and 162 nM | TGI (MDA-MB-231 breast): 461 nM and 593 nM | GI50 (MDA-MB-435): 115 nM and 244 nM | TGI (MDA-MB-435): 381 nM and 1330 nM | GI50 (MOLT-4 leukemia): 121 nM and 273 nM | TGI (MOLT-4 leukemia): 374 nM and 1030 nM | GI50 (NCI-H226 lung): 155 nM and 334 nM | GI50 (NCI-H23 lung): 104 nM and 190 nM | TGI (NCI-H23 lung): 390 nM and 737 nM | GI50 (NCI-H460 lung): 134 nM and 213 nM | TGI (NCI-H460 lung): 5980 nM | GI50 (NCI-H522 lung): 76.4 nM and 171 nM | GI50 (NCI/ADR-RES ovarian): 137 nM and 231 nM | TGI (NCI/ADR-RES ovarian): 536 nM and 1350 nM | GI50 (OVCAR-3 ovarian): 141 nM and 283 nM | TGI (OVCAR-3 ovarian): 2590 nM and 21500 nM | GI50 (OVCAR-4 ovarian): 156 nM and 259 nM | TGI (OVCAR-4 ovarian): 13400 nM and > 100000 nM | GI50 (OVCAR-5 ovarian): 249 nM and 373 nM | TGI (OVCAR-5 ovarian): 50000 nM and > 95500 nM | GI50 (OVCAR-8 ovarian): 147 nM and 330 nM | TGI (OVCAR-8 ovarian): 605 nM | GI50 (PC-3 prostate): 203 nM and 295 nM | TGI (PC-3 prostate): 5420 nM and > 38700 nM | GI50 (RPMI-8226 leukemia): 50.2 nM and 176 nM | TGI (RPMI-8226 leukemia): 287 nM | GI50 (RXF 393 renal): 135 nM and 268 nM | TGI (RXF 393 renal): 434 nM and 2710 nM | GI50 (SF-268 CNS): 152 nM and 317 nM | GI50 (SF-295 CNS): 112 nM and 207 nM | TGI (SF-295 CNS): 308 nM and 609 nM | GI50 (SF-539 CNS): 188 nM and 261 nM | TGI (SF-539 CNS): 4300 nM and 12000 nM | GI50 (SK-MEL-2 melanoma): 111 nM and 167 nM | TGI (SK-MEL-2 melanoma): 268 nM and 443 nM | GI50 (SK-MEL-28 melanoma): 165 nM and 243 nM | TGI (SK-MEL-28 melanoma): 2030 nM and 2010 nM | GI50 (SK-MEL-5 melanoma): 51.5 nM and 116 nM | TGI (SK-MEL-5 melanoma): 150 nM and 276 nM | GI50 (SK-OV-3 ovarian): 150 nM and 234 nM | TGI (SK-OV-3 ovarian): 660 nM | GI50 (SN12C renal): 115 nM and 195 nM | GI50 (SNB-19 CNS): 164 nM and 248 nM | TGI (SNB-19 CNS): 50000 nM and > 100000 nM | GI50 (SNB-75 CNS): 155 nM and 211 nM | TGI (SNB-75 CNS): 2490 nM and 864 nM | GI50 (SR leukemia): 145 nM and 134 nM | TGI (SR leukemia): 761 nM | GI50 (SW-620 colon): 163 nM and 333 nM | TGI (SW-620 colon): 15500 nM and 11900 nM | GI50 (T-47D breast): 107 nM and 188 nM | TGI (T-47D breast): 361 nM and 836 nM | GI50 (TK-10 renal): 165 nM and 307 nM | TGI (TK-10 renal): 1670 nM and 984 nM | GI50 (U251 CNS): 97.1 nM and 217 nM | GI50 (UACC-257 melanoma): 84.6 nM and 185 nM | TGI (UACC-257 melanoma): 267 nM and 603 nM | GI50 (UACC-62 melanoma): 77.3 nM and 67.8 nM | TGI (UACC-62 melanoma): 568 nM and 392 nM | GI50 (UO-31 renal): 129 nM and 254 nM | TGI (UO-31 renal): 437 nM and 1010 nM
